In patent US8609695B2, “Methods of treating and/or suppressing insulin resistance” (Endorecherche, Inc., priority 1999, dated 2013):

Legend:
aged Sprague-Dawley rats = conditions: reduced from 600, without affecting food intake; cited from earlier work
[1] = tested on: lean and obese Zucker female rats; assay: Energy balance and lipid-lipoprotein metabolism in Zucker female rats (Example 8B); assay type: in vivo, Rattus norvegicus; conditions: for Lipoprotein lipase activity White retroperitoneal / Lipoprotein lipase activity soleus / Plasma glucose / Plasma insulin / Plasma total cholesterol / Plasma triglycerides / Weight: 2.5 mg/kg orally once daily, 14 days
Experimental: The objective of this study was to determine the cffect of EM-652.HCl on energy balance and lipid-lipoprotein metabolism in lean and obese Zucker female rats. For this purpose, EM-652.HCl (2.5 mg/kg) was administered orally (gavage) once daily for 14 days to intact lean and obese Zucker female rats.
d) Diet: • During the acclimation period, rats received a commercial rodent diet (Purina, #5075) and tap water ad libitum. During study period, rats received the following diet (diet #3) composed of (g/100 g): Starch, 31.2; Dextrose, 31.2; Casein, 20.0; Corn oil, 6.4; dl-Methionine, 0.3; Vitamin mix, 1.0; AIN-76 mineral mix, 4.9; Fiber, 5.0. Rats were fasted (with access to water only) around 07 h00 the morning of their necropsy day. Randomixation:
Sixteen lean and sixteen obese intact female rats were assigned to 4 groups of 8 rats for conduct of the study outlined below.
Administration of the tested compound or vehicle started on Day 1 of the study. The tested compound EM-652.HCl was given as suspension in 0.4% methylcellulose by oral gavage (0.5 ml/gavage/rat) once daily for 14 days. Rats from control groups received the vehicle alone (0.5 ml/gavage/rat) for the same time period.
During the acclimation period, animals were weighed two days prior to the start of dosing for randomization. Then, rats were weighed on day 1 of the study and every 2 days during the study period as well as on the day of necropsy. Body weights were recorded with a precision of 1 g.
Following an approximative 6-hour fasting period, animals were necropsied (approximately 30 hours after the last dosing). They were anesthesized with ketamine-xylazine and blood drawn by cardiac punction.
Blood lipids (Total cholesterol (CHOL) and Triglycerides (TG)) and glucose were measured on frozen plasma samples using the Boehringer Mannheim Diagnostic Hitachi 911 Analyzer (Boehringer Mannheim Diagnostic Laboratory Systems). Circulating hormones and substrates (Leptin, Insulin, corticosterone) were measured on frozen plasma samples with the following kits: • Leptin: Linco RIA kit • Insulin: Linco RIA kit Organs and Tissues Collected
The retroperitoneal adipose tissue and the soleus (muscle) were collected and frozen in liquid nitrogen for further determination of lipoprotein lipase (LPL) activity.

[2] = tested on: human endometrial adenocarcinoma Ishikawa cells; assay: Alkaline phosphatase activity in Ishikawa cells (Example 11); assay type: cell-based; conditions: for Stimulation of alkaline phosphatase by tested compounds % of 1 nM E2 stimulation: Ishikawa cells, five days incubation, intrinsic estrogenic activity, hydrochloride
Experimental: The human Ishikawa cell line derived from a well differentiated endometrial adenocarcinoma was kindly provided by Dr. Erlio Gurpide, The Mount Sinai Medical Center, New York, N.Y. The Ishikawa cells were routinely maintained in Eagle's Minimum Essential Medium (MEM) containing 5% (vol/vol) FBS and supplemented with 100 U/ml penicillin, 100 μg/ml streptomycin, 0.1 mM Non-essential Amino Acids solution. Cells were plated in Falcon T75 flasks at a density of 1.5×10^6 cells at 37 C.
Twenty four hours before the start of an experiment, the medium of near confluent Ishikawa cells was replaced by fresh estrogen-free basal medium (EFBM) consisting of a 1:1 (v:v) mixture of phenol red-free Ham's F-12 and Dulbecco's Modified Eagle's Medium (DMEM) supplemented with 100 U/mL penicillin, 100 μg/mL Streptomycin, 2 mM glutamine, and 5% FBS treated twice with dextran-coated charcoal to remove endogenous steroids. Cells were then harvested by 0.1% pancreatin (Sigma) and 0.25 mM HEPES, resuspended in EFBM and plated in Falcon 96 well flat-bottomed microtiter plates at a density of 2.2×10^4 cells/well in a volume of 100 μl and allowed to adhere to the surface of the plates for 24 h. Thereafter, medium was replaced with fresh EFBM containing the indicated concentrations of compounds in a final volume of 200 μl. Cells were incubated for five days, with a medium change after 48 h.
At the end of the incubation period, microtiter plates were inverted and growth medium was decanted. The plates were rinsed with 200 μL by well of PBS (0.15M NaCl, 10 mM sodium phosphate, pH 7.4). PBS was then removed from the plates while carefully leaving some residual PBS, and the wash procedure was repeated once. The buffered saline was then decanted, and the inverted plates were blotted gently on a paper towel. Following replacement of the covers, the plates were placed at −80 C for 15 min followed by thawing at room temperature for 10 min. The plates were then placed on ice, and 50 μl of an ice-cold solution containing 5 mM p-nitrophenyl phosphate, 0.24 mM MgCl2, and 1 M diethanolamine (pH 9.8) was added. Plates were then warmed to room temperature, and the yellow color from the production of p-nitrophenyl was allowed to develop (8 min). Plates were monitored at 405 nm in an enzyme-linked immunosorbent assay plate reader (BIO-RAD, model 2550 EIA Reader).
Dose-response curves as well as IC50 values were calculated using a weighted iterative nonlinear squares regression.

[3] = tested on: human breast cancer MCF-7 cells; assay: Proliferation of MCF-7 cell line, DNA content (Example 12); assay type: cell-based
Text: MCF-7 human breast cancer cells were obtained from the American Type Culture Collection # HTB 22 at passage 147 and routinely grown in phenol red-free Dulbecco's Modified Eagle's-Ham's F12 medium, the supplements mentioned above and 5% FBS. The MCF-7 human breast adenocarcinoma cell line was derived from the pleural effusion of a patient. MCF-7 cells were used between passages 148 and 165 and subcultured weekly.
Cells in their late logarithmic growth phase were harvested with 0.1% pancreatin (Sigma) and resuspended in the appropriate medium containing 50 ng bovine insulin/ml and 5% (v/v) FBS treated twice with dextran-coated charcoal to remove endogenous steroids. Cells were plated in 24-well Falcon plastic culture plates (2 cm2/well) at the indicated density and allowed to adhere to the surface of the plates for 72 h. […] Control cells received only the ethanolic vehicle (0.1% EtOH,v/v). Cells were incubated for the specified time intervals with medium changes at 2- or 3-day intervals. Cell number was determined by measurement of DNA content.
Dose-response curves as well IC50 values were calculated using a weighted iterative nonlinear least-squares regression. All results are expressed as means±SEM.

## C[C@]12CC[C@H](O)CC1=CC[C@@H]1[C@@H]2CC[C@]2(C)C(=O)CC[C@@H]12 [DHEA, dehydroepiandrosterone]
Aged Sprague-Dawley rats
  body weight: 550 g

## CC1=C(c2ccc(O)cc2)[C@H](c2ccc(OCCN3CCCCC3)cc2)Oc2cc(O)ccc21.Cl [EM-652.HCl, (S)-(+)-7-hydroxy-3-(4′-hydroxyphenyl)-4-methyl-2-(4″-(2′″-piperidino-ethoxy)phenyl)-2H-1-benxopyran hydrochloride]
[1]; lean Zucker female rats
  Lipoprotein lipase activity White retroperitoneal: 1349 ± 246 μU/g protein
  Lipoprotein lipase activity soleus: 60.8 ± 11.1 μU/g protein
  Plasma glucose: 9.60 ± 0.41 mmol/L
  Plasma insulin: 0.063 ± 0.012 nmol/L
  Plasma total cholesterol: 1.57 ± 0.14 mmol/L
  Plasma triglycerides: 0.83 ± 0.07 mmol/L
  Weight: 154 ± 5 g
[1]; lean female Zucker rats, 2.5 mg/kg/day
  reduction of plasma insulin: 48%
[1]; obese Zucker female rats
  Lipoprotein lipase activity White retroperitoneal: 3819 ± 485 μU/g protein
  Lipoprotein lipase activity soleus: 36.6 ± 7.1 μU/g protein
  Plasma glucose: 11.70 ± 0.47 mmol/L
  Plasma insulin: 0.515 ± 0.091 nmol/L
  Plasma total cholesterol: 3.27 ± 0.97 mmol/L
  Plasma triglycerides: 22.20 ± 4.44 mmol/L
  Weight: 291 ± 9 g
[1]; obese female Zucker rats, 2.5 mg/kg/day
  effect on plasma insulin: no significant effect
[2]; Homo sapiens, Ishikawa, 120 h, read-out: Inhibition of 1 nM E2 stimulation of alkaline phosphatase by tested compounds IC50
  IC50: 1.52 ± 0.22 nM
[2]
  Stimulation of alkaline phosphatase by tested compounds % of 1 nM E2 stimulation: do not show significant estrogenic activity
[2]; listed as EM-652•HCl
  Stimulation of alkaline phosphatase by tested compounds % of 1 nM E2 stimulation: 1.88 ± 0.26 (22) % of 1 nM E2 stimulation
[3]; Homo sapiens, MCF7, read-out: Inhibition of 1 nM E2 stimulation of DNA by tested compounds IC50
  IC50: 0.796 nM
[3]; Homo sapiens, MCF7, MCF-7 cells, text summary of table 12, read-out: EC50 of inhibition (antiestrogen activity)
  EC50: 0.8 nM
[3]; MCF-7 cells, absence of E2
  Stimulation of DNA by tested compounds % of 1 nM E2 stimulation: N.S.
